In ChEMBL document CHEMBL4038320 (J Med Chem, 2017):

What was measured:
[1] = target: T1, Beta-adrenergic receptor kinase 1 (Homo sapiens, UniProt P25098); experiment: Inhibition of human GRK2 expressed in HEK-B2 cells assessed as isoproterenol-stimulated cAMP accumulation preincubation for 20 mins followed by isoproterenol stimulation measured after 20 mins by cAMP ALPHA-screen assay; assay type: cell-based
T1 sequence (P25098 whole entry): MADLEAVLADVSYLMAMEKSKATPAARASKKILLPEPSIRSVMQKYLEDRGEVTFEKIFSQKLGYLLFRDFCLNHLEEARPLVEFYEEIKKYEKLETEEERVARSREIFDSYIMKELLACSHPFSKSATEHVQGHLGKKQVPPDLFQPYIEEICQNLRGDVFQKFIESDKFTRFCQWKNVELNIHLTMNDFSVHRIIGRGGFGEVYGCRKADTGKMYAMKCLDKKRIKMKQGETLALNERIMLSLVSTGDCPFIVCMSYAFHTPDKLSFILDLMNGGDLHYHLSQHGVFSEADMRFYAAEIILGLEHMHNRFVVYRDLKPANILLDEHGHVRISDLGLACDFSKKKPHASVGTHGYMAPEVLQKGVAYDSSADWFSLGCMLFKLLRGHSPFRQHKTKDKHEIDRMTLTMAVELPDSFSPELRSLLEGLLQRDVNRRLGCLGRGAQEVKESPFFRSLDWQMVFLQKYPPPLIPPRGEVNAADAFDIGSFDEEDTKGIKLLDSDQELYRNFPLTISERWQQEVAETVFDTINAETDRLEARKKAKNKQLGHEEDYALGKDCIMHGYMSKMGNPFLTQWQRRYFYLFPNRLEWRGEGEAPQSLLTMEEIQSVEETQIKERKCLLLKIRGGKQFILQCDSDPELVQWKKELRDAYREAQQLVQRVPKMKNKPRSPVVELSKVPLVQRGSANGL

[2] = target: Protein kinase C alpha type (Homo sapiens, UniProt P17252); experiment: Inhibition of human PKCalpha active using MBP as substrate after 60 mins in presence of [gamma-32]ATP by scintillation counting
CYP3A4 = CYP3A4 (Homo sapiens, UniProt P08684); experiment: Inhibition of CYP3A4 (unknown origin) at 10 uM; assay type: ADME
Sequence of CYP3A4 (P08684 whole entry, the tested form may be a part): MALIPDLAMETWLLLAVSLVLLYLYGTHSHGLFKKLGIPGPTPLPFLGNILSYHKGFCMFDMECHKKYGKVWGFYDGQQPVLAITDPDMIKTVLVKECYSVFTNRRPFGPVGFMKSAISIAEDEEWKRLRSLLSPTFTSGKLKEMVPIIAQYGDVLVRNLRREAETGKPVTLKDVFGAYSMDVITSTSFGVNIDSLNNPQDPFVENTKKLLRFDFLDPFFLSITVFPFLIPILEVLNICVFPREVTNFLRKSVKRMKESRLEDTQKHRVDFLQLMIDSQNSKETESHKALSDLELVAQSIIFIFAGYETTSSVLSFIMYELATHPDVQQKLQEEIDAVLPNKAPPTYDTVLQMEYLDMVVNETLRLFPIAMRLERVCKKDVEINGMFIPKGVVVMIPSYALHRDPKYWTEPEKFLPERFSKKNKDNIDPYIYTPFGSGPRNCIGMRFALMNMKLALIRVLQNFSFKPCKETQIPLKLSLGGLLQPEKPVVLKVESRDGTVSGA

[3] = target: Rho-associated protein kinase 2 (Homo sapiens, UniProt O75116); experiment: Inhibition of recombinant human N-terminal GST-tagged ROCK2 catalytic domain (1 to 553 residues) expressed in baculovirus expression system using STK 2-biotin as substrate measured after 60 mins by HTRF/TR-FRET assay
Sequence of Rho-associated protein kinase 2 (O75116 whole entry, the tested form may be a part): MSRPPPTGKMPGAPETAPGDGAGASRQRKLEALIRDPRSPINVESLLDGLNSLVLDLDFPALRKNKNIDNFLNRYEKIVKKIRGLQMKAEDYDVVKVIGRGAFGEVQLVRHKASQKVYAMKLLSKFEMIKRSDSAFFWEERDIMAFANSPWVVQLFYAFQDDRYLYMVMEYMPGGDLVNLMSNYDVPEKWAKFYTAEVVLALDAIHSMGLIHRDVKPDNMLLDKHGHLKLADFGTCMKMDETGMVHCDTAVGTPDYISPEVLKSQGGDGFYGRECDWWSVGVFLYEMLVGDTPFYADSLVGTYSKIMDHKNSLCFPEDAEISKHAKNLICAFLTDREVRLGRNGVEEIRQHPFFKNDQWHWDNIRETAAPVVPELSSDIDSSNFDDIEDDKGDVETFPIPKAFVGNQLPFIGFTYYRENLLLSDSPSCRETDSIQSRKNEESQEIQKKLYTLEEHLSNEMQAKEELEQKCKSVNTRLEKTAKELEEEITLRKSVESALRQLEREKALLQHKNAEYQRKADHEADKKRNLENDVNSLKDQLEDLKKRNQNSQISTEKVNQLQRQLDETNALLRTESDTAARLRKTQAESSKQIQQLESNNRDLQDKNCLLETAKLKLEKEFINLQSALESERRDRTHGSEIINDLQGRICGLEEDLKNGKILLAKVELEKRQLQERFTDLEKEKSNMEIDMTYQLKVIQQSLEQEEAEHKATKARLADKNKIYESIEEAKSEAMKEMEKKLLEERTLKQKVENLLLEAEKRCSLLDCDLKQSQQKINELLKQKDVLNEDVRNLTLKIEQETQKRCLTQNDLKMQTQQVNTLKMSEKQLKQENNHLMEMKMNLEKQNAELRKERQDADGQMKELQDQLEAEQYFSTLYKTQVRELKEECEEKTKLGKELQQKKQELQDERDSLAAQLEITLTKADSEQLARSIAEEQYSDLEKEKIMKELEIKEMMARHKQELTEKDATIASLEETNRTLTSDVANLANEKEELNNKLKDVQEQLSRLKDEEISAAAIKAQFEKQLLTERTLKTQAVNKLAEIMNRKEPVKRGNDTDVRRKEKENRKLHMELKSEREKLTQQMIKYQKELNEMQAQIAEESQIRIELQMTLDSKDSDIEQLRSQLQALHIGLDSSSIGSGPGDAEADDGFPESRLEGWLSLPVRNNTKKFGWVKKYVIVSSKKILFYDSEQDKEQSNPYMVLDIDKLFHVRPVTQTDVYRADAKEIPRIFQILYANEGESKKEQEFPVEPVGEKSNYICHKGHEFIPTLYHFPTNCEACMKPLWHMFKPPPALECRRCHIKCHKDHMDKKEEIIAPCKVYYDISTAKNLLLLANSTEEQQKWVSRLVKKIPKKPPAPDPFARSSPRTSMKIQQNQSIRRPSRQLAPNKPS

[4] = target: T2, G protein-coupled receptor kinase 3 (Homo sapiens, UniProt P35626); experiment: Inhibition of recombinant human full length GST-tagged GRK3 expressed in baculovirus using ulight topo2alpha as substrate preincubated for 60 mins followed by substrate addition measured after 10 mins by Lance TR-FRET assay
T2 sequence (P35626 whole entry): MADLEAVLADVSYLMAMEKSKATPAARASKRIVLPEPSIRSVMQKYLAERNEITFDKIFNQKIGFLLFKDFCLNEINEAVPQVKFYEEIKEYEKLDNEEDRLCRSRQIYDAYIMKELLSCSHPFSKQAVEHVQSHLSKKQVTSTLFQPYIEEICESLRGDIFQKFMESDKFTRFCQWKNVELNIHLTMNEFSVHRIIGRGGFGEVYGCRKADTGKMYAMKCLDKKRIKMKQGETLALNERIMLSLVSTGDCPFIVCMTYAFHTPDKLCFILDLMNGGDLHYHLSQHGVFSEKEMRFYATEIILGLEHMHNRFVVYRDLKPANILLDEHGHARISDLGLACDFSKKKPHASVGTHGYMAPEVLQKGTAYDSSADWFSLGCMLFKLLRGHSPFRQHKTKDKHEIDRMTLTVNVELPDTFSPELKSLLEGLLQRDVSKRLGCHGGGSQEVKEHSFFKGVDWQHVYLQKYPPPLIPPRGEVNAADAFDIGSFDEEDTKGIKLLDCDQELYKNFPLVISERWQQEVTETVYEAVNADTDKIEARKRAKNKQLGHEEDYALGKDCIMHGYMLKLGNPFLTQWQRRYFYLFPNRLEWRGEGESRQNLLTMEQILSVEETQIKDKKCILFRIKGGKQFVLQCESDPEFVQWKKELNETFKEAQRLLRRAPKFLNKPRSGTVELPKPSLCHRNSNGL

[5] = target: G protein-coupled receptor kinase 6 (Homo sapiens, UniProt P43250); experiment: Inhibition of recombinant human full length GST-tagged GRK6 expressed in baculovirus using ulight topo2alpha as substrate preincubated for 60 mins followed by substrate addition measured after 10 mins by Lance TR-FRET assay
Sequence of G protein-coupled receptor kinase 6 (P43250 whole entry): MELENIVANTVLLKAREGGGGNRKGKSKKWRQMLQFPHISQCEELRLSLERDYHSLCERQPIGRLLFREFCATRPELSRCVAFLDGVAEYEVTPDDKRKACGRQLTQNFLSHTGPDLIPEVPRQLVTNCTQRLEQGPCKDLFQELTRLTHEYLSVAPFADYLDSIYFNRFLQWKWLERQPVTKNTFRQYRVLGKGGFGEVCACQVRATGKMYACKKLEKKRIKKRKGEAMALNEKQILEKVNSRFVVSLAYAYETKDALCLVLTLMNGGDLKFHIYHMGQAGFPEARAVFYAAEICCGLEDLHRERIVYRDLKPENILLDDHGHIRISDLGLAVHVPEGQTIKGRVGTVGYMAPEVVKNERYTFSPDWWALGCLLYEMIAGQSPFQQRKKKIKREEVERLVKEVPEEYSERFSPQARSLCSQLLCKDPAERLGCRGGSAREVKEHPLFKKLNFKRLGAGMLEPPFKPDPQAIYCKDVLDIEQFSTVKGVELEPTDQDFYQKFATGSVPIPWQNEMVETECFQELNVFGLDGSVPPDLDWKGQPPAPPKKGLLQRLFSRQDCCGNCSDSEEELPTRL

Rhodopsin kinase GRK1 = target: T3, Rhodopsin kinase GRK1 (Homo sapiens, UniProt Q15835); experiment: Inhibition of recombinant human GST-tagged GRK1 expressed in baculovirus infected fall armyworm Sf9 cells after 60 mins by LanthaScreen eu kinase binding assay
T3 sequence (Q15835 whole entry): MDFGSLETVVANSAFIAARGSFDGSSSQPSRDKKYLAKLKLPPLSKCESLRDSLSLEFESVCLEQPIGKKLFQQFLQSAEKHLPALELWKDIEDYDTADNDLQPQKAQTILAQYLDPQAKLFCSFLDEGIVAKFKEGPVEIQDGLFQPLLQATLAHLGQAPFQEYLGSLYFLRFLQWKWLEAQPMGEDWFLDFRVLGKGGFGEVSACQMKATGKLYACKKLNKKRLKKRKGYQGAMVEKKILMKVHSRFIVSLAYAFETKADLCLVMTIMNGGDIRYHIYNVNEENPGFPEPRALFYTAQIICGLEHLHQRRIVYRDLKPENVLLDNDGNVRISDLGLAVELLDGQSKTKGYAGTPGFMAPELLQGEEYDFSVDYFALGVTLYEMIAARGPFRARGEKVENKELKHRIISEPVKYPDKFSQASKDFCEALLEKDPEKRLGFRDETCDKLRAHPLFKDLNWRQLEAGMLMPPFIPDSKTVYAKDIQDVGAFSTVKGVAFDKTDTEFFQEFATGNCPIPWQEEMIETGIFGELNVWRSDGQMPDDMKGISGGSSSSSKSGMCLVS

Rhodopsin kinase GRK7 = target: T4, Rhodopsin kinase GRK7 (Homo sapiens, UniProt Q8WTQ7); experiment: Inhibition of recombinant human full length GST-tagged GRK7 expressed in baculovirus using ulight topo2alpha as substrate preincubated for 60 mins followed by substrate addition measured after 10 mins by Lance TR-FRET assay
T4 sequence (Q8WTQ7 whole entry): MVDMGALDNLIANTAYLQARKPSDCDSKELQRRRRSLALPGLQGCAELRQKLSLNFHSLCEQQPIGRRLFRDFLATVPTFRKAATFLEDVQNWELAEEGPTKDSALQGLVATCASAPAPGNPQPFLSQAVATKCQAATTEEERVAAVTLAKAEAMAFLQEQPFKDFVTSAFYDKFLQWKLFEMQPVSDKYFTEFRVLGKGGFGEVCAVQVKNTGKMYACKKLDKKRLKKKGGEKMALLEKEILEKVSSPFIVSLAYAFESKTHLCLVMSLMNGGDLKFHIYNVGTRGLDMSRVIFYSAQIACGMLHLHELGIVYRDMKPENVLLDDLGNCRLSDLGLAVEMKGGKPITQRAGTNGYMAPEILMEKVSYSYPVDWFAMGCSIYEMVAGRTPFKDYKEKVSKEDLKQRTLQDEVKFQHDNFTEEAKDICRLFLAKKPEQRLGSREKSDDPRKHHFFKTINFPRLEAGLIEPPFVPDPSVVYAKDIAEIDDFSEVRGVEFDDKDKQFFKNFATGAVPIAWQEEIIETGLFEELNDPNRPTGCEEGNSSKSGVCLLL

[6] = target: G protein-coupled receptor kinase 5 (Homo sapiens, UniProt P34947)
Sequence of G protein-coupled receptor kinase 5 (P34947 whole entry): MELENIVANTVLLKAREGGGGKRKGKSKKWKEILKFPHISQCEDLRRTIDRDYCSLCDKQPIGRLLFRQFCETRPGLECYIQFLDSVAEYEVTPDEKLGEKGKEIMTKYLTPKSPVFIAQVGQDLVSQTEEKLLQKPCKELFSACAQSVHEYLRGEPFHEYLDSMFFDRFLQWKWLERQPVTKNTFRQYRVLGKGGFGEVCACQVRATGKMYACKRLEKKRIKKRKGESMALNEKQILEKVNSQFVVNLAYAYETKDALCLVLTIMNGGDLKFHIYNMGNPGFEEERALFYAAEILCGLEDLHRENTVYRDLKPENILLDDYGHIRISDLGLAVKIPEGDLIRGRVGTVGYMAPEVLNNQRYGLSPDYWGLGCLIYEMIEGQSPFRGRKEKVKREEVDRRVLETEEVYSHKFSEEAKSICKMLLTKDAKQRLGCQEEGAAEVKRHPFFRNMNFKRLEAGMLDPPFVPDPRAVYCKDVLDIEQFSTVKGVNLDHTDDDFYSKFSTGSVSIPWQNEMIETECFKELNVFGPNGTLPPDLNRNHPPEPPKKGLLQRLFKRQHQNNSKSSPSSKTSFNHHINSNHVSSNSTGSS
Description: Inhibition of recombinant human full length GST-tagged GRK5 expressed in baculovirus using ulight topo2alpha as substrate preincubated for 60 mins followed by substrate addition measured after 10 mins by Lance TR-FRET assay

hERG (KCNH2) [7] = target: T5, hERG (KCNH2) (Homo sapiens, UniProt Q12809); experiment: Displacement of [3H]Astemizole from human ERG expressed in HEK293 cell membranes at 1 uM after 60 mins; conditions: membranes of HEK293 cells that express hERG, probe [3H]Astemizole
T5 sequence (Q12809 whole entry): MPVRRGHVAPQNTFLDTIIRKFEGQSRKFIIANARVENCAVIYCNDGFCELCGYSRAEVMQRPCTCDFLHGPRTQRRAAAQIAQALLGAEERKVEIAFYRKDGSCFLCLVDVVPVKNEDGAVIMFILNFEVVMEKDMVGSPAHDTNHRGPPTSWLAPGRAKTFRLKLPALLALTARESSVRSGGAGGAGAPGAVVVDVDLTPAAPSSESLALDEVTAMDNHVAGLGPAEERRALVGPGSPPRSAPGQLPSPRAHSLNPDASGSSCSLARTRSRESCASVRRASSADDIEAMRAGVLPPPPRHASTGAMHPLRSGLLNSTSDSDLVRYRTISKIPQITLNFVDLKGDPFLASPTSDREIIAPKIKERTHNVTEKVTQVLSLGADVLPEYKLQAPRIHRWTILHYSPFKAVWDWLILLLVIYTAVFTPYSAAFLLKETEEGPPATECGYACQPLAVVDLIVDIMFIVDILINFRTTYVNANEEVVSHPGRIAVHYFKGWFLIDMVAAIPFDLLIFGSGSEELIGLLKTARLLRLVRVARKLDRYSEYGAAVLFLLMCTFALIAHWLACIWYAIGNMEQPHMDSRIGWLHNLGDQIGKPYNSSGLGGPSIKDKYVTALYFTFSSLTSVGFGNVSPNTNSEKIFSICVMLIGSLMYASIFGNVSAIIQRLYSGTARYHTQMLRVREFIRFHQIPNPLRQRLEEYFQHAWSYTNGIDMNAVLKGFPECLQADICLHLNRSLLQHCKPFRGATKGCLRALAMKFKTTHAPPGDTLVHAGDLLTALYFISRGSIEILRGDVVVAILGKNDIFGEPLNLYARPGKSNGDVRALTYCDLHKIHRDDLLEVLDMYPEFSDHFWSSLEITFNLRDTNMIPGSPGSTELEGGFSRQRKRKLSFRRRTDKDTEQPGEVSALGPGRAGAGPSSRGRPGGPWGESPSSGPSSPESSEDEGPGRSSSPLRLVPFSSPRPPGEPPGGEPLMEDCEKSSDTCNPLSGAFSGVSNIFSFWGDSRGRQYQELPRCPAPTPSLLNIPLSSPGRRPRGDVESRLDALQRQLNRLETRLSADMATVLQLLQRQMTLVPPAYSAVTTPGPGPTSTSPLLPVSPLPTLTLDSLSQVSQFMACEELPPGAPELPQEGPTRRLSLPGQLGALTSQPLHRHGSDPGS

[8] = Inhibition of recombinant human PKA expressed in Escherichia coli using LRRASLG as substrate preincubated for 15 mins followed by substrate addition measured after 15 mins in presence of [gamma-33P]-ATP by scintillation counting
hERG (KCNH2) [9] = target: T5, hERG (KCNH2); experiment: Displacement of [3H]Astemizole from human ERG expressed in HEK293 cell membranes at 10 uM after 60 mins; conditions: membranes of HEK293 cells that express hERG, probe [3H]Astemizole

| Structure (SMILES) | EC50 [1] [µM] | IC50 [2] [µM] | inhibition at 10 µM (CYP3A4) [%] | IC50 [3] [µM] | IC50 [4] [µM] | IC50 [5] [µM] | IC50 (Rhodopsin kinase GRK1) [µM] | IC50 (Rhodopsin kinase GRK7) [µM] | IC50 [6] [µM] | IC50 [8] [µM] | inhibition at 1 h, 1 µM (hERG (KCNH2) [7]) [%] | inhibition at 1 h, 10 µM (hERG (KCNH2) [9]) [%] |
| --- | --- | --- | --- | --- | --- | --- | --- | --- | --- | --- | --- | --- |
| Cn1c(CNc2cccc(C(=O)NCc3cccc(C(F)(F)F)c3)c2)nnc1-c1ccncc1 | 220 | > 10 | 44 | 0.53 |  |  |  |  |  |  |  |  |
| Cn1c(CNc2cccc(C(=O)NCc3ccccc3C(F)(F)F)c2)nnc1-c1ccncc1 |  | 8.1 | 44 | 1.4 | 0.0054 | > 30 | 3.1 | 25 | 2.3 | > 1 | 9 | 31 |
| CCn1c(CNc2cccc(C(=O)NCc3ccccc3)c2)nnc1-c1ccncc1 |  | 2.9 | 50 | 0.076 | 0.0033 | > 30 | > 30 | > 30 |  |  |  |  |
| Cc1c(-c2ccncc2)n[nH]c1CNc1cccc(C(=O)NCc2ccccc2)c1 |  | 4.8 | 96 | 0.023 | 0.0043 | > 30 | > 30 | 18 | > 30 |  |  |  |
| CNC(=O)c1cccc(NCc2nc(-c3ccncc3)n[nH]2)c1 |  | > 10 | 66 | 0.22 | 0.021 | > 30 | > 30 | > 30 | > 30 |  |  |  |
| Cn1c(CNc2cccc(C(=O)NCc3ccccc3)c2)nnc1-c1ccncc1 | 1900 | > 10 | 26 | 0.55 |  |  |  |  |  |  |  |  |

The remaining compounds from weak to strong by IC50 [3], led by results:

| EC50 [1] [µM] | IC50 [2] [µM] | inhibition at 10 µM (CYP3A4) [%] | IC50 [3] [µM] | IC50 [4] [µM] | IC50 [5] [µM] | IC50 (Rhodopsin kinase GRK1) [µM] | IC50 (Rhodopsin kinase GRK7) [µM] | IC50 [6] [µM] | IC50 [8] [µM] | Structure (SMILES) | inhibition at 1 h, 1 µM (hERG (KCNH2) [7]) [%] | inhibition at 1 h, 10 µM (hERG (KCNH2) [9]) [%] |
| --- | --- | --- | --- | --- | --- | --- | --- | --- | --- | --- | --- | --- |
| 930 | > 10 | 36 | 0.62 |  |  |  |  |  |  | Cn1c(CNc2cccc(C(=O)NCc3ccc(C(F)(F)F)cc3)c2)nnc1-c1ccncc1 |  |  |
| 26 | 5.7 | 67 | 0.11 |  |  |  |  |  |  | CCCn1c(CNc2cccc(C(=O)NCc3ccccc3)c2)nnc1-c1ccncc1 |  |  |
|  |  | 83 | 0.049 | 0.00065 | > 30 | 0.27 | 2.4 | 1.5 |  | O=C(NCc1ccccc1C(F)(F)F)c1cccc(NCc2nnc3n2CCOc2cnccc2-3)c1 |  |  |
|  | 6.3 | 91 | 0.024 | 0.0018 | > 30 | > 30 | 8.8 | 5.7 |  | O=C(NCc1ccccc1)c1cccc(NCc2nc(-c3ccncc3)n[nH]2)c1 |  |  |
